The values below come from PubChem BioAssay (NCI).

Among the test systems are MDA-N; DMS 273 small cell lung; LXFL 529 NSCLC; HOP-18 NSCLC; KM20L2 colon; XF 498 CNS; DLD-1 colon; SNB-78 CNS; RXF-631 renal.
Assay in all cases: NCI tumour cell line growth inhibition, 48 h

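Cells were grown in 96-well plates and exposed to each compound for 48 hours at five concentrations; endpoints were interpolated linearly between bracketing concentrations, or set to the highest concentration if not reached. At the GI50, growth is halved. The concentration for full growth arrest is given as TGI.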

In the case of `NP1(Oc2ccc(F)cc2)=NP(N)(Oc2ccc(F)cc2)=NP(Oc2ccc(F)cc2)(Oc2ccc(F)cc2)=N1` (centres undefined), in the test with MDA-N, the TGI is 19 µM.
Regarding `Cc1nc2ccccc2c(=O)n1/N=C(\N=Nc1cc(Cl)ccc1Cl)c1ccc(N(C)C)cc1`, the TGI in the test with DMS 273 small cell lung is above 100 µM; in the test with LXFL 529 NSCLC, above 100 µM; with HOP-18 NSCLC, above 100 µM; in the test on KM20L2 colon, above 100 µM; with XF 498 CNS, 8.35 µM; in the test on DLD-1 colon, above 100 µM.
`CC1=C(C(=S)Nc2ccc(Cl)c(C(=O)OC(C)C)c2)SCCO1` gave a TGI with MDA-N of 39.2 µM.
Take `C#Cc1c(C)c(/C=C/C(C)=C\C(=O)OC)n(C)c1C`: the TGI in the test with DMS 273 small cell lung, in the test on LXFL 529 NSCLC, in the test on HOP-18 NSCLC, in the test on SNB-78 CNS, with KM20L2 colon and with XF 498 CNS was above 100 µM in each case. The compound also returned a TGI in the test with DLD-1 colon above 100 µM.
For `O=C1c2ccccc2C(=O)c2c1ccc1c3ccccc3n(-c3ccccc3)c21`, the TGI in the test with MDA-N is above 51.4 µM; in the test on DMS 273 small cell lung it was 34.4 µM; with LXFL 529 NSCLC it was 30.7 µM; in the test with HOP-18 NSCLC it was 27.6 µM; in the test on RXF-631 renal, 20.7 µM; with SNB-78 CNS it was 49.3 µM. The TGI was 53.5 µM in the test on KM20L2 colon and 41.6 µM in the test with DLD-1 colon.
As for `C=C1C(=O)C23C(O)CC4C(C)(C)CCC(O)C4(C)C2CC(OC(C)=O)C1[C@H]3O` (some centres undefined), the TGI was found to be 20.6 µM in the test on MDA-N; 3.79 µM in the test with DMS 273 small cell lung; 2.41 µM in the test with LXFL 529 NSCLC; 3.82 µM with HOP-18 NSCLC; 15.7 µM with RXF-631 renal; 11.1 µM with KM20L2 colon. Moreover, the results for the TGI with XF 498 CNS and in the test on DLD-1 colon were 3.33 µM and 4.65 µM, respectively.
`Nc1nc(N)c(CCCCc2ccc([N+](=O)[O-])cc2)c(N)n1`: the TGI with MDA-N, with DMS 273 small cell lung, with LXFL 529 NSCLC, with HOP-18 NSCLC, in the test on SNB-78 CNS and with KM20L2 colon was above 100 µM in each case. Moreover, the TGI with XF 498 CNS and in the test with DLD-1 colon was above 100 µM each time.
Regarding `CC(=O)O[C@H]1CSC[C@@H](OC(C)=O)C1[N+](=O)[O-]` (some centres undefined), the TGI in the test on DMS 273 small cell lung was above 100 µM; in the test with LXFL 529 NSCLC, 34 µM; in the test with HOP-18 NSCLC, above 100 µM; in the test on RXF-631 renal, above 100 µM; in the test on SNB-78 CNS it was above 100 µM; in the test on KM20L2 colon, above 100 µM.
For `CCN(CC)c1ccc(N=Nc2ccc(-c3nc4cccnc4s3)cc2)cc1`, the TGI was above 100 µM with LXFL 529 NSCLC; above 100 µM in the test on SNB-78 CNS; above 100 µM in the test on KM20L2 colon; 72.1 µM in the test with XF 498 CNS; above 100 µM in the test on DLD-1 colon.
For the compound `O=C(CC1(O)C(=O)Nc2ccccc21)c1cccc(O)c1` (centres undefined), the TGI in the test with DMS 273 small cell lung, with LXFL 529 NSCLC, in the test with RXF-631 renal, with SNB-78 CNS, in the test with KM20L2 colon and with XF 498 CNS was above 100 µM in each case. The same compound returned a TGI in the test on DLD-1 colon above 100 µM.
Take `CC(C)(c1ccc(C=O)o1)c1ccc(C(C)(C)c2ccc(C=O)o2)o1`: the TGI with DMS 273 small cell lung, in the test on LXFL 529 NSCLC, in the test with HOP-18 NSCLC, in the test on RXF-631 renal, with SNB-78 CNS and in the test with KM20L2 colon was above 100 µM each time.
Regarding `O=C1OC(c2ccccc2)=N/C1=C\c1ccccc1`, the TGI in the test with MDA-N was above 100 µM.
In the case of `NN=C1/C(=C\c2ccccc2)CCC/C1=C/c1ccccc1`, the TGI in the test on DMS 273 small cell lung, in the test on LXFL 529 NSCLC, with HOP-18 NSCLC, in the test on SNB-78 CNS, in the test on KM20L2 colon and in the test on DLD-1 colon was above 100 µM each time.
In the test on MDA-N, `COc1cc2c(c3oc4c(O)cccc4c(=O)c13)CC(C(C)(O)CCl)O2` (centres undefined) yielded a TGI of 2.45 µM.
On to `CCOC(=O)C1=C(C)N(NC(=O)Nc2ccccc2)C2(N)N(NC(=O)Nc3ccccc3)C(C)=C(C(=O)OCC)C12C#N` (centres undefined), for which the TGI stood at 31.3 µM with DMS 273 small cell lung; 32.6 µM with LXFL 529 NSCLC; 34.3 µM in the test with HOP-18 NSCLC; 37.6 µM in the test on SNB-78 CNS; 33.4 µM in the test with KM20L2 colon; 34.1 µM in the test with DLD-1 colon.
In the case of `CCNC(=O)O/N=C1\CCC2[C@@H]3CC=C4C[C@@H](OC(=O)NCC)CC[C@]4(C)C3CC[C@]12C` (some centres undefined), the TGI was found to be 3.54 µM in the test with DMS 273 small cell lung; 2.2 µM in the test on LXFL 529 NSCLC; 6.73 µM in the test on HOP-18 NSCLC; 17.3 µM in the test on RXF-631 renal; 12.7 µM in the test with KM20L2 colon; 0.911 µM in the test on XF 498 CNS. In the test on DLD-1 colon, this compound displayed a TGI above 100 µM.
With `CCOC(=O)Nc1cc2c(c(N)n1)N=C(c1ccc(Cl)cc1Cl)CN2`, the TGI with MDA-N was found to be 18.6 µM.
Take `CC1=C(\C=C/C(C)=C/C=C/C(C)=C/C=C/C=C(C)\C=C\C=C(C)/C=C/C2=C(C)CCCC2(C)C)C(C)(C)CCC1`: the TGI in the test with MDA-N was above 100 µM.
Take `CSCSCC(CO)NC(=O)/C=C/c1c(C)[nH]c(=O)[nH]c1=O` (centres undefined): the TGI with DMS 273 small cell lung, in the test on LXFL 529 NSCLC, in the test on HOP-18 NSCLC, in the test with SNB-78 CNS, in the test on KM20L2 colon and in the test with DLD-1 colon was above 100 µM each time.
With `N#Cc1c(N)oc2cc3c(C#N)c(N)oc3cc12`, the TGI with DMS 273 small cell lung, in the test with LXFL 529 NSCLC, in the test with HOP-18 NSCLC, with RXF-631 renal, in the test with KM20L2 colon and in the test with DLD-1 colon was above 100 µM each time.
`CN(N=O)c1ccc(/C=C/c2ccnc3ccccc23)cc1` showed a TGI in the test with MDA-N above 100 µM.
With `COc1cc(C2c3cc4c(cc3[C@@H](Nc3ccc(F)cc3)C3COC(=O)[C@H]23)OCO4)cc(OC)c1O` (some centres undefined), the TGI in the test with MDA-N is above 100 µM; with DMS 273 small cell lung it was 6.46 µM; in the test with LXFL 529 NSCLC it was 46.6 µM; in the test on HOP-18 NSCLC it was 46.8 µM; with SNB-78 CNS it was 99.2 µM; in the test on KM20L2 colon, 19.8 µM. In addition, the TGI worked out at 18.2 µM in the test with XF 498 CNS and 28.5 µM with DLD-1 colon. For the same compound, the GI50 was 403 nM in the test on DMS 273 small cell lung and 718 nM in the test on XF 498 CNS.
